Type in all cases: cell-based
For assay [1], the system named is Pseudomonas aeruginosa ATCC 19660. Nature of the assay: antibacterial in vitro activity (MIC), Pseudomonas aeruginosa ATCC 19660. As to conditions: ATCC19660; Pseudomonas aeruginosa ATCC 19660, in vitro. An excerpt: (§1) Comparison between the antibacterial in vitro activity
(§2) (MIC, μg/ml) of compound "5" and two reference drugs: […]

Assay [2] deals with Proteus morganii ATCC 25830. As to the kind of experiment: antibacterial in vitro activity (MIC), Proteus morganii ATCC 25830. To be noted: Morganella morganii, ATCC25830; Proteus morganii ATCC 25830, in vitro.
Description: as §1, §2

Assay [3] has as its system Streptococcus pyogenes ATCC 12384. Nature of the assay: antibacterial in vitro activity (MIC), Streptococcus pyogenes ATCC 12384. As to conditions: ATCC12384; Streptococcus pyogenes ATCC 12384, in vitro.
Description: as §1, §2

In assay [4] the test system is Klebsiella aerogenes 1082E (β-lact.+). Nature of the assay: antibacterial in vitro activity (MIC), Klebsiella aerogenes 1082E (β-lact.+).
Description: as §1, §2

Assay [5] concerns Staphylococcus aureus Smith. As to the kind of experiment: antibacterial in vitro activity (MIC), Staphylococcus aureus Smith.
Description: as §1, §2

Assay [6] has as its system Salmonella typhimurium ATCC 14028. As to the kind of experiment: antibacterial in vitro activity (MIC), Salmonella typhimurium ATCC 14028. As to conditions: Salmonella enterica; Salmonella typhimurium ATCC 14028, in vitro.
Description: as §1, §2

Assay [7] deals with Serratia marcescens ATCC 2902. Nature of the assay: antibacterial in vitro activity (MIC), Serratia marcescens ATCC 2902. To be noted: ATCC2902; Serratia marcescens ATCC 2902, in vitro.
Description: as §1, §2

Assay [8] has as its system Escherichia coli B Cef. R (β-lact.+). Nature of the assay: antibacterial in vitro activity (MIC), Escherichia coli B Cef. R (β-lact.+).
Description: as §1, §2

Assay [9] deals with Shigella flexneri ATCC 11836. As to the kind of experiment: antibacterial in vitro activity (MIC), Shigella flexneri ATCC 11836. To be noted: ATCC11836; Shigella flexneri ATCC 11836, in vitro.
Description: as §1, §2

Assay [10] deals with Citrobacter freundii ATCC 8090. As to the kind of experiment: antibacterial in vitro activity (MIC), Citrobacter freundii ATCC 8090. To be noted: ATCC8090; Citrobacter freundii ATCC 8090, in vitro.
Description: as §1, §2

For assay [11], the system named is Enterobacter cloacae P 99 (β-lact.+). As to the kind of experiment: antibacterial in vitro activity (MIC), Enterobacter cloacae P 99 (β-lact.+).
Description: as §1, §2

Assay [12] has as its system Escherichia coli 026:B6 Cef R. Nature of the assay: antibacterial in vitro activity (MIC), Escherichia coli 026:B6 Cef R.
Description: as §1, §2

Assay [13] deals with Staphylococcus aureus 209 P. As to the kind of experiment: antibacterial in vitro activity (MIC), Staphylococcus aureus 209 P.
Description: as §1, §2

The test system of assay [14] is Proteus mirabilis FI 7474. As to the kind of experiment: antibacterial in vitro activity (MIC), Proteus mirabilis FI 7474. To be noted: FI7474; Proteus mirabilis FI 7474, in vitro.
Description: as §1, §2

For another assay, the system named is Escherichia coli B. Nature of the assay: antibacterial in vitro activity (MIC), Escherichia coli B.
Description: as §1, §2

Assay [15] concerns Enterobacter cloacae 1321 E. As to the kind of experiment: antibacterial in vitro activity (MIC), Enterobacter cloacae 1321 E.
Description: as §1, §2

The test system of a further assay is Escherichia coli 026:B6. As to the kind of experiment: antibacterial in vitro activity (MIC), Escherichia coli 026:B6. As to conditions: Escherichia coli 026:B6, in vitro.
Description: as §1, §2

Where [16] appears, read: Staphylococcus aureus 209 P, in vitro, read-out: MIC.
Setting [17] is: Enterobacter cloacae P 99 (β-lact.+), in vitro, read-out: MIC.

≈ marks a conversion by molar mass, not a printed value. Like-named read-outs stand apart in the source and are kept apart here.

Turning to `CC(=O)OCC1=C(C(=O)O)N2C(=O)[C@H]([C@@H](C)O)[C@H]2S1` [FCE 21420], the MIC (as a rule, the lowest concentration that inhibits growth of the organism) in assay [1] is above 50 µg/mL; in [2], 0.78 µg/mL (≈ 2.71 µM); in assay [3], 0.045 µg/mL (≈ 0.157 µM); in assay [4] it was 0.78 µg/mL (≈ 2.71 µM); in [5], 0.023 µg/mL (≈ 0.0801 µM); in assay [6] it was 0.39 µg/mL (≈ 1.36 µM). Besides, the MIC in [7] came to 3.1 µg/mL (≈ 10.8 µM); in assay [8] it was 0.39 µg/mL (≈ 1.36 µM); in assay [9], 0.39 µg/mL (≈ 1.36 µM); in assay [10] it was 0.78 µg/mL (≈ 2.71 µM); in [11] (Enterobacter cloacae) it was 3.12 µg/mL (≈ 10.9 µM); in [12], 3.12 µg/mL (≈ 10.9 µM). The MIC in assay [13] (setting [16]) came to 0.045 µg/mL (≈ 0.157 µM).
Regarding `C[C@@H](O)[C@H]1C(=O)N2C(C(=O)[O-])=C(C[N+]3(C)CCCC3)S[C@H]12` [Compound 5, (5R,6S)-6-[(1R)-hydroxyethyl]-2-[1-(1-methylpyrrolidinio)]-methylpenem-3-carboxylate], the MIC in assay [1] is 25 µg/mL (≈ 80 µM); in assay [2] it was 0.38 µg/mL (≈ 1.22 µM); in assay [3], below 0.005 µg/mL; in assay [4] it was 0.045 µg/mL (≈ 0.144 µM); in assay [5] it was below 0.005 µg/mL; in assay [6], 0.045 µg/mL (≈ 0.144 µM). The MIC in assay [7] turned out to be 0.78 µg/mL (≈ 2.5 µM); in [14], 0.19 µg/mL (≈ 0.608 µM); in assay [8], 0.045 µg/mL (≈ 0.144 µM); with Escherichia coli B it was 0.045 µg/mL (≈ 0.144 µM); in [9] it was 0.045 µg/mL (≈ 0.144 µM); in [10], 0.09 µg/mL (≈ 0.288 µM). Also, the MIC is 0.045 µg/mL (≈ 0.144 µM) in [11] (setting [17]), 0.045 µg/mL (≈ 0.144 µM) in [15], 0.005 µg/mL (≈ 0.016 µM) against Escherichia coli 026:B6 and below 0.005 µg/mL in assay [13] (setting [16]).
`CO/N=C(\C(=O)N[C@@H]1C(=O)N2C(C(=O)O)=C(COC(C)=O)CS[C@H]12)c1csc(N)n1` [Cefotaxime]: the MIC in assay [1] worked out at 12 µg/mL (≈ 26.3 µM); in assay [2], 0.011 µg/mL (≈ 0.0242 µM); in assay [3], 0.78 µg/mL (≈ 1.71 µM); in [4] it was 3.12 µg/mL (≈ 6.85 µM); in assay [5] it was 0.78 µg/mL (≈ 1.71 µM); in [6], 0.045 µg/mL (≈ 0.0988 µM). The MIC in assay [8] was 0.19 µg/mL (≈ 0.417 µM); with Escherichia coli B, 0.011 µg/mL (≈ 0.0242 µM); in assay [9], 0.023 µg/mL (≈ 0.0505 µM); in assay [11] (setting [17]) it was above 100 µg/mL; in assay [12], 1.56 µg/mL (≈ 3.43 µM); with Escherichia coli 026:B6, 0.78 µg/mL (≈ 1.71 µM). This compound also showed an MIC in [13] (Staphylococcus aureus, 209P) of 1.56 µg/mL (≈ 3.43 µM).

The record behind these values is patent publication US4713378A, “Penem derivatives” (Farmitalia Carlo Erba S.p.A., priority 1984, dated 1987).
